Tests used:
[1] = target: Microtubule-associated protein tau (Homo sapiens) (UniProt P10636); assay: Inhibition of human tau (441 residues) expressed in Escherichia coli BL21(DE3) assessed as reduction in aggregation at 10 uM relative to control
Homo sapiens = organism: Homo sapiens; assay: Inhibition of human tau (441 residues) P301L mutant expressed in Escherichia coli BL21(DE3) assessed as reduction in aggregation at 10 uM relative to control
[2] = Inhibition of human tau (441 residues) P301L mutant expressed in Escherichia coli BL21(DE3) assessed as reduction in aggregation
[3] = Inhibition of beta secretase (unknown origin); set-up: species or system Homo sapiens

Chain of Microtubule-associated protein tau (Homo sapiens) (P10636 whole entry): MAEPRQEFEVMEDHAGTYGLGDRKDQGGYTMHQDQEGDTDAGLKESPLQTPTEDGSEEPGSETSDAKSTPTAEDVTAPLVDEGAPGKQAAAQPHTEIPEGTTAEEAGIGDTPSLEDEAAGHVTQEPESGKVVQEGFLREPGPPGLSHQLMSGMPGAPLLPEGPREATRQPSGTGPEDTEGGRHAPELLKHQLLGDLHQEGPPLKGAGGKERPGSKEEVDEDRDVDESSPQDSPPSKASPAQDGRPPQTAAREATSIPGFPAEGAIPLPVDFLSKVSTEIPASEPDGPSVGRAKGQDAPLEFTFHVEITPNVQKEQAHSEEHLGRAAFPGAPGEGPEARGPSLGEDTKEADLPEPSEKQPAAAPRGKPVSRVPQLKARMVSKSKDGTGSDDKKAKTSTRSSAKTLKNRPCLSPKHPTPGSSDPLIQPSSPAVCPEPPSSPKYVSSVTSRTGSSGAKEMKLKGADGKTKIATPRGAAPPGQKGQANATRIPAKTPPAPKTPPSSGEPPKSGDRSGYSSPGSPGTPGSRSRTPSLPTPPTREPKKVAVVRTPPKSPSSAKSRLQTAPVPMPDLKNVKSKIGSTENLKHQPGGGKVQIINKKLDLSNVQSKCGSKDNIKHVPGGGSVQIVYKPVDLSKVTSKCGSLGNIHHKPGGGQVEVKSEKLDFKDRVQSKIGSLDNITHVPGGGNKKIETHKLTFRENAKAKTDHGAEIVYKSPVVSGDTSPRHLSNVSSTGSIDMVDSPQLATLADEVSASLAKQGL

| Compound | inhibition [1] [%] | inhibition (Homo sapiens) [%] | IC50 [2] [µM] | Ki [3] [µM] |
| --- | --- | --- | --- | --- |
| C/C=C1/[C@H](O)OC=C(C(=O)OC)[C@H]1CC(=O)OCCc1ccc(O)c(O)c1 | 79 | 84 | 1.3 |  |
| COC(=O)C1=CO[C@@H](O[C@@H]2O[C@H](CO)[C@@H](O)[C@H](O)[C@H]2O)[C@@H]2[C@@H](C)[C@@H](O)C[C@H]12 [LOGANIN] |  |  |  | 55 |

Reference: ChEMBL document CHEMBL4342408, “Therapeutic potentials of plant iridoids in Alzheimer's and Parkinson's diseases: A review” (Eur J Med Chem, 2019)
